Laboratory results from US7662789B2, “Peptide substance restoring myocardium function” (“Access Bioscience” CJSC, priority 2004, dated 2010).
Where a SMILES comes first, the peptide text is derived from it.

Legend:
[1] = system: isolated rat heart; experiment: Contractive ability of isolated rat heart after ischemia; details: 10 min re-perfusion
Procedure: Another experiment was devoted to the study of the tetrapeptide's effect on the restoration of isolated rat heart's ability to contract after a period of ischemia. The study was conducted on 3 groups, 8 animals in each, in case of the additionally strained cardiac muscle working mode, under conditions of induced contraction rhythm and perfusion solution temperature increase up to 37° C.
The other series of experiments conducted on 12 rat hearts was aimed at the study of the tetrapeptide's protective effect in case of its addition into the perfusate in the concentration of […] before the induction of ischemia. Then “severe” stimulation was conducted (5 Hz frequency) in the heart and contractive activity was estimated. […] The administration of the tetrapeptide in a very small dose of 0.005 μg/ml preserved the heart, which was on the verge of stopping, from fibrillation and contractive activity decrease, restoring the value of the latter index.

[2] = system: isolated guinea pig heart; experiment: Isolated guinea pig heart, Langendorf perfusion, 30 min total ischemia and re-perfusion; parameters: species or system guinea pigs
Procedure: The experiment was conducted under conditions of perfusion in isolated hearts of 60 male guinea pigs, by Langendorf. The animals were randomly subdivided into several groups, each consisting of 6 animals. Total cardiac ischemia was induced by means of fully tightening the perfusional solution hose for 30 minutes. Then re-perfusion was performed under the same conditions as before ischemia (control group). In experimental animals perfusion was performed together with Ala-Glu-Asp-Arg (SEQ ID NO:1) tetrapeptide in the concentrations of 0.002-0.05 μg/ml. Mechanical contractions were registered, bioptates, weighing approximately 10 mg, were several times taken from the top of the heart, then the content of malon dialdegide (MDA) was identified in them. The hearts in the end of the experiment and partially before ischemia were frozen in liquid nitrogen for ATP, ADP and AMP content identification.

[3] = system: succinate dehydrogenase; details: myocardium slices from different animals
[4] = system: white mongrel male rats; experiment: Sub-acute toxicity, 90 days intramuscular in rats; assay type: in vivo; details: 90 days i.m. daily; 1 μg/kg, 0.1 mg/kg, 1 mg/kg; 100-1000 times the therapeutic doses
Procedure: The study of sub-acute toxicity was conducted on 60 white mongrel male rats with body weight of 160-240 g. […] Before the substance's administration, as well as on the 30th, 60th and 90th day after the beginning of the course the morphological composition and the properties of the animals' peripheric blood were studied. Upon completion of the experiment the biochemical and coagulological indices of the animals' blood were studied.

[5] = system: experimental myocardium infarction in rats; experiment: Experimental myocardium infarction by left coronary artery vasoligation in rats; assay type: in vivo; details: for Necrosis zone size, % of ventricle mass: 0.05 μg per animal i.p. 1, 3, 5 h after occlusion; for Death rate: 20 animals per group
Procedure: The experiment was conducted on 40 white mongrel rats each weighing 180-200 g. The animals were randomly subdivided into two groups, 20 animals in each. Myocardium infarction (MI) was induced by vasoligation of the left coronary artery. Ala-Glu-Asp-Arg tetrapeptide was administered to the animals intraperitoneally in the dose of 0.05 μg per animal in sterile 0.9% NaCl solution three times—in 1, 3 and 5 hours after coronary occlusion. Rats were decapitated in 6 and 24 hours after the surgery. Animals subjected to the surgery, which intraperitoneally received 0.9% NaCl solution, served as the control. MI zone size was identified gravimetrically. Myocardium fragments were fixed for light and electronic microscopy, part of the material was frozen in liquid nitrogen for biochemical studies.

[6] = system: isolated rat heart; experiment: Contractive ability of isolated rat heart after ischemia; details: 0.005 μg/ml; 12 rat hearts; severe stimulation 5 Hz
[7] = 0.005 μg/ml, listed as tetrapeptide
[8] = 0.002 μg/ml, re-perfusion 15 min
[9] = 0.002 μg/ml, re-perfusion 30 min
[10] = 0.005 μg/ml, re-perfusion 15 min
[11] = 0.005 μg/ml, re-perfusion 30 min
[12] = 0.01 μg/ml, re-perfusion 15 min
[13] = 0.01 μg/ml, re-perfusion 30 min
[14] = 0.05 μg/ml, re-perfusion 15 min
[15] = 0.05 μg/ml, re-perfusion 30 min
[16] = 0.05 μg per animal i.p., 6 hours
[17] = 0.05 μg per animal i.p., 24 hours

In the case of `C[C@H](N)C(=O)N[C@@H](CCC(=O)O)C(=O)N[C@@H](CC(=O)O)C(=O)N[C@@H](CCCNC(=N)N)C(=O)O` [Tetrapeptide, L-alanyl-L-glutamyl-L-aspartyl-L-arginine] (H-AEDR-OH), the “Amplitude of contractions, % of init.” value ([1]; 0.005 μg/ml) is reported as 75 ± 12 % of init, the Coronary duct ([1]; 0.005 μg/ml) is reported as 10.8 ± 1.6 mL/min and the Extent of contracture ([1]; 0.005 μg/ml) is reported as 1.3 ± 0.4 mm. For the same compound, the “Max. speed of contraction, % of init.” value ([1]; 0.005 μg/ml) was 56 ± 10 % of init, the “Max. speed of relaxation, % of init.” value ([1]; 0.005 μg/ml) was 69 ± 8 % of init and the “Amplitude of contractions, % of init.” value [1, 7] was 75±12 % of init. The Coronary duct [1, 7] was 10.8 ± 1.6 mL/min, the “Amplitude of contractions, % of init.” value ([1]; 0.05 μg/ml) was 36 ± 10 % of init and the Coronary duct ([1]; 0.05 μg/ml) was 9.6 ± 0.7 mL/min. For the same compound, the Extent of contracture ([1]; 0.05 μg/ml) was 2.5 ± 0.3 mm, the “Max. speed of contraction, % of init.” value ([1]; 0.05 μg/ml) was 28 ± 7 % of init and the “Max. speed of relaxation, % of init.” value ([1]; 0.05 μg/ml) was 28 ± 6 % of init. For the same compound, the “Amplitude of contractions, % of initial” value ([2]; 0.002 μg/ml, before ischemia) was 100 % of initial, the MDA ([2]; 0.002 μg/ml, before ischemia) was 225 ± 23 nmole/g of tissue and the “Amplitude of contractions, % of initial” value [2, 8] was 70 ± 13 % of initial. The MDA [2, 8] was 216 ± 5 nmole/g of tissue, the “Amplitude of contractions, % of initial” value [2, 9] was 81 ± 16 % of initial and the MDA [2, 9] was 220 ± 12 nmole/g of tissue. The “Amplitude of contractions, % of initial” value ([2]; 0.005 μg/ml, before ischemia) was 100 % of initial, the MDA ([2]; 0.005 μg/ml, before ischemia) was 168 ± 25 nmole/g of tissue and the “Amplitude of contractions, % of initial” value [2, 10] was 89 ± 6 % of initial. For the same compound, the MDA [2, 10] was 231 ± 7 nmole/g of tissue, the “Amplitude of contractions, % of initial” value [2, 11] was 93 ± 5 % of initial and the MDA [2, 11] was 186 ± 10 nmole/g of tissue. The “Amplitude of contractions, % of initial” value ([2]; 0.01 μg/ml, before ischemia) was 100 % of initial, the MDA ([2]; 0.01 μg/ml, before ischemia) was 203 ± 18 nmole/g of tissue and the “Amplitude of contractions, % of initial” value [2, 12] was 61 ± 4 % of initial. The MDA [2, 12] was 248 ± 8 nmole/g of tissue, the “Amplitude of contractions, % of initial” value [2, 13] was 64 ± 3 % of initial and the MDA [2, 13] was 220 ± 9 nmole/g of tissue. For the same compound, the “Amplitude of contractions, % of initial” value ([2]; 0.05 μg/ml, before ischemia) was 100 % of initial, the Energy charge ([2]; 0.05 μg/ml, before ischemia) was 7.78 ± 0.14 μmole of adenosine phosphates/g of tissue and the MDA ([2]; 0.05 μg/ml, before ischemia) was 156 ± 28 nmole/g of tissue. For the same compound, the “Amplitude of contractions, % of initial” value [2, 14] was 38 ± 13 % of initial, the MDA [2, 14] was 264 ± 13 nmole/g of tissue and the “Amplitude of contractions, % of initial” value [2, 15] was 32 ± 9 % of initial. The Energy charge [2, 15] was 2.98 ± 0.35 μmole of adenosine phosphates/g of tissue, the MDA [2, 15] was 252 ± 11 nmole/g of tissue and the Energy charge ([2]; 0.002-0.005 μg/ml, before ischemia) was 7.68 ± 0.21 μmole of adenosine phosphates/g of tissue. For the same compound, the Energy charge ([2]; 0.002-0.005 μg/ml, re-perfusion 30 min) was 6.01 ± 0.23 μmole of adenosine phosphates/g of tissue, the “Influence on the status of the normal heart” value ([2]; perfusion without ischemia) was “does not influence the status of the normal heart” and the “Activity of succinate dehydrogenase” value [3] was “inhibiting effect”. For the same compound, the “Sub-acute toxicity, side effects” value [4] was “absence of side effects”, the “Necrosis zone size, % of ventricle mass” value ([5]; 6 hours) was 38.1 ± 1.8 % of ventricle mass and the “Necrosis zone size, % of ventricle mass” value ([5]; 24 hours) was 49.6 ± 1.6 % of ventricle mass. For the same compound, the “Content in the blood serum: CPK” value [5, 16] was 961 ± 52 nmole/s · 1, the “Content in the blood serum: LDH” value [5, 16] was 309 ± 16 nmole/s · 1 and the “Content in the blood serum: glucose” value [5, 16] was 3.12 ± 0.09 mmol/L. For the same compound, the “Glycogen content in the myocardium” value [5, 16] was 1.05 ± 0.12 g/kg of the tissue, the Death rate [5, 16] was 2 and the “Content in the blood serum: CPK” value [5, 17] was 923 ± 38 nmole/s · 1. The “Content in the blood serum: LDH” value [5, 17] was 201 ± 15 nmole/s · 1, the “Content in the blood serum: glucose” value [5, 17] was 3.01 ± 0.11 mmol/L and the “Glycogen content in the myocardium” value [5, 17] was 1.18 ± 0.12 g/kg of the tissue. The Death rate [5, 17] was 1, the “Mortality rate during the first 24 hours after infarction” value ([5]; 0.05 μg per animal i.p., control 45%) was 15% and the “Decrease of glucose content in the blood” value ([5]; acute myocardium ischemia, versus control) was about 1.5 times. The “Coefficient of mitochondria energy efficiency” value ([5]; electronograms, 24 hours since beginning of MI, control 41.5±2.4) was 93.2±2.3% and the “Protective effect when added into the perfusate before induced ischemia” value [6] was “restrained the growth of contracture during the period of ischemia”.
